Assay results reported in patent publication US7129073B2, “Regulation of neuronal function through metabotropic glutamate receptor signaling pathways” (The Rockefeller University, priority 2001, dated 2006).
“Also recorded” adds a separate entry of the source.

Legend:
[1] = tested on: Thr75 of DARPP-32 (Cdk5 site); assay: DARPP-32 phospho-Thr75 immunoblot in neostriatal slices; format: cell-based, mouse; details: for effect of pretreatment on the DHPG effect on Thr75 phosphorylation: before DHPG 100 μM 2 min, L-AP3 100 μM 20 min, ZM241385 100 μM, cyclosporin A 5 μM 1 h; for effect of pretreatment on the DHPG effect on Thr75 phosphorylation / effect on basal phosphorylation of Thr75: U73122 10 μM 30 min, BAPTA/AM 20 μM
Protocol: (§1) Neostriatal slices were prepared from male C57/BL6 mice (6–8 weeks old) in accordance with methods known in the art (Nishi, A. et al. 1997, J. Neurosci. 17:8147–8155). Slices were treated with a drug. After drug treatment, slices were immediately frozen in liquid nitrogen, and stored at −80° C. until assayed.
(§2) Frozen slices were sonicated in hot homogenization buffer containing 1% SDS and 50 mM NaF, and samples were boiled for 10 minutes. SDS-PAGE sample buffer was then added and samples were boiled for 5 minutes. Samples (approximately 120 μg of total protein) were separated by SDS-PAGE (10% polyacrylamide) and then transferred to nitrocellulose. In most studies, immunoblots were first probed with anti-phospho-Ser137 DARPP-32 antibody. The blots were then stripped and probed with anti-phospho-Thr75 DARPP-32 antibody. Blots were stripped again and probed with anti-total DARPP-32 antibody. […] Chemiluminescence was detected by autoradiography and bands were quantified by analysis of scanned images using NIH IMAGE 1.52 software. Data were statistically analyzed by Student's t test in Microsoft EXCEL™ software as indicated.
(§3) Neostriatal slices were prepared from male C57/BL6 mice (6–8 weeks old) as disclosed (22). Slices were treated with drugs as specified in the text and figure legends. After drug treatment, slices were immediately frozen in liquid nitrogen, and stored at −80° C. until assayed.
(§4) Frozen slices were sonicated in hot homogenization buffer containing 1% SDS and 50 mM NaF, and samples were boiled for 10 min. SDS-PAGE sample buffer was then added and samples were boiled for 5 min. Samples (approximately 120 μg protein) were separated by SDS-PAGE (10% polyacrylamide) and transferred to nitrocellulose. Immunoblots were first probed with antiphospho-Ser-137 DARPP-32 antibody. The blots were stripped and probed with anti-phosphoThr-75 DARPP-32 antibody. Blots were stripped again and probed with anti-total DARPP-32 antibody. Antibody binding was detected by enhanced chemiluminescence (ECL) using X-ray film, and images were analyzed by laser scanning densitometry using NIH Image 1.52 software. Data were statistically analyzed by Student's t-test using Microsoft EXCEL™ software as indicated.

[2] = tested on: HA-tagged CK1ε; assay: kinase activity of HA-CK1ε immunoprecipitated from transfected N2a cells, DARPP-32 as substrate; format: cell-based; details: 30 min before DHPG 100 μM 2 min, CKI-7 100 μM, L-AP3 100 μM, U73122 10 μM, BAPTA/AM 20 μM, cyclosporin A 1 μM
Protocol: Neuroblastoma N2a cells were cultured in DMEM containing 5% fetal bovine serum (FBS) to 50–60% confluency. Four micrograms of the expression plasmid for HA-CK1ε were transfected into N2a cells in 100 mm dishes using FuGENE™ 6. Twenty-four hours after transfection, cells were incubated in phosphate-buffered Krebs-Henseleit solution (Sigma) for 10 minutes at room temperature. Cells were then incubated with or without CKI inhibitor for 30 minutes before treating with the group I mGluR agonist (S)-3,5-DHPG (100 μM) for 2 minutes. Cells were then lysed in one ml of lysis buffer containing 1% Nonidet P-40 (NP-40), 150 mM NaCl, 0.1% SDS, 50 mM Tris (pH 8.0), 5 mM Na3VO4, 20 mM NaF, 20 mM β-glycerol-phosphate and protease inhibitors. Lysates were centrifuged at 10,000 g and supernatants were used for immunoprecipitation and kinase assay.
For immunoprecipitation of CKI from N2a cells, lysates (1 mg of total protein) were pre-cleared with 5 μl of mouse IgG and 50 μl of protein A agarose for 30 minutes. Five μl of anti-HA antibody were added and samples were incubated for 1 hour at 4° C. Five μl of anti-mouse rabbit IgG and 50 μl of protein A agarose were then added for 45 minutes. Immuno-complexes were washed three times in lysis buffer, two times in kinase buffer (30 mM Hepes (pH 7.5), 7 mM MgCl2, 0.5 mM DTT). CKI assays were performed in a 30 μl assay volume with 2 μg of purified DARPP-32, 500 μM ATP and 5 μCi γ-^32P-ATP. Samples were incubated at 30° C. for 20 minutes, reactions were stopped by addition of SDS-sample buffer, and samples were boiled for 5 minutes. Samples were separated by SDS-PAGE (12% polyacrylamide). SDS-PAGE gels were dried and exposed to Kodak film for autoradiography. Bands were quantified by analysis using a Molecular Dynamics PhosphorImager.
Neuroblastoma N2a cells were cultured to 50–60% confluence in DMEM containing 5% fetal bovine serum. Four μg of the expression plasmid for HA-CK1ε or myc-MM2-CK1ε was transfected into N2a cells in 100 mm dishes using FuGENE6™. Twenty-four hours after transfection, cells were incubated at room temperature in phosphate-buffered Kreb's-Henseleit solution (Sigma) for 10 min and then with or without inhibitors for 30 min before treating with (S)-3,5-DHPG, for 2 min. Cells were then lysed in 1 ml of radio-immunoprecipitation (RIPA) buffer containing 1% NP-40, 150 mM NaCl, 0.1% SDS, 50 mM Tris, pH 8.0, 5 mM Na3VO4, 20 mM NaF, 20 mM β-glycerol-phosphate and protease inhibitors. Lysates were centrifuged at 10,000 g, and supernatants were used for immunoprecipitation and kinase assay.
For immunoprecipitation of CK1ε from N2a cells, lysates (1 mg of total protein) were precleared with 5 μl of mouse IgG (ICN) and 50 μl of protein A agarose for 30 min. Five μl (approximately 2 μg) of anti-HA or anti-myc antibody was added and samples were incubated for 1 h at 4° C. Five μl of anti-mouse rabbit IgG and 50 μl of protein A agarose were then added for 45 min. Immuno-complexes were washed 3 times in lysis buffer and 2 times in kinase buffer (30 mM Hepes, pH 7.5, 7 mM MgCl2, 0.5 mM DTT).
(§5) CK1 assays were performed in a 30 μl assay volume with 2 μg of purified DARPP-32, 500 μM ATP and 5 μCi γ-^32P-ATP. Reactions were started by addition of the ATP. Samples were incubated at 30° C. for 10 min and reactions were stopped by addition of SDS-sample buffer and boiled for 5 min. Samples were separated by SDS-PAGE (12% polyacrylamide). SDS-PAGE gels were dried and exposed to Kodak film for autoradiography. Results were quantified using a Molecular Dynamics PHOSPHORIMAGER™. Immunoprecipitation and assay of Cdk5 were performed as disclosed (20).

[3] = tested on: Ser137 of DARPP-32 (CK1 site); assay: DARPP-32 phospho-Ser137 immunoblot in neostriatal slices; format: cell-based, mouse; details: for effect of pretreatment on the DHPG effect on Ser137 phosphorylation: before DHPG 100 μM 2 min, L-AP3 100 μM 20 min, ZM241385 100 μM, cyclosporin A 5 μM 1 h; for effect of pretreatment on the DHPG effect on Ser137 phosphorylation / effect on basal phosphorylation of Ser137: U73122 10 μM 30 min, BAPTA/AM 20 μM
Protocol: as §1, §2, §3, §4

[4] = tested on: ER; details: read-out: IC50, competition with fluorescein-labeled estradiol for binding to ER; FP-based assay; cited from earlier work
[5] = tested on: Cdk5; assay: Cdk5 kinase activity immunoprecipitated from neostriatal slices, histone H-1 as substrate; format: cell-based, mouse; details: for effect of pretreatment on the effect of DHPG on Cdk5 kinase activity: CKI-7 dose-dependent, U73122 10 μM, BAPTA/AM 20 μM, cyclosporin A 5 μM
Protocol: as §1
For Cdk5 immunoprecipitation, striatal tissue slices (approximately 150 μg total protein) were lysed using a Dounce homogenizer and 1 ml of lysis buffer (150 mM NaCl, 20 mM Tris-HCl (pH 7.4), 1 mM EDTA, 0.5% NP-40, 5 mM NaF, 5 mM Na3PO4 and protease inhibitors). Lysates were centrifuged at 10,000 g for 10 minutes at 4° C. Supernatants were pre-cleared by adding rabbit IgG-conjugated agarose for 40 minutes at 4° C. Ten μl of Cdk5 antibody conjugated to agarose were added and samples were incubated for 1 hour at 4° C. with mixing. Agarose pellets were collected and washed three times with 1 ml of lysis buffer and two times with kinase assay buffer (50 mM Hepes (pH 7.5), 10 mM MgCl2, 1 mM DTT). Cdk5 kinase assays were performed in a 30-μl reaction mixtures with 2 μg Histone H-1, 500 μM ATP and 5 μCi of γ-^32P-ATP. Samples were incubated at 30° C. for 10 minutes, reactions were stopped by addition of SDS-sample buffer, and samples were boiled for 5 minutes. Samples were separated by SDS-PAGE and analyzed as disclosed above for CKI assays. Data were analyzed by Student's t-test in Microsoft Excel software as indicated, with significance defined as p<0.05.
as §5

[6] = tested on: voltage-dependent Ca2+ channels; assay: whole-cell recordings of voltage-dependent Ca2+ channels in dissociated neostriatal neurons; format: cell-based, mouse; details: CK1–7 100 μM, butyrolactone 25 μM (FIG. 6)
Protocol: Neostriatal neurons from 3- to 4-week-old mice were acutely dissociated by using procedures similar to those disclosed in Eberwine et al. (1995, Prog. Brain Res. 105:117–126). Whole-cell current recordings used standard voltage-clamp techniques. The internal solution consisted of 180 mM N-methyl-D-glucamine, 40 mM Hepes, 4 mM MgCl2, 0.5 mM 1,2-bis(2-aminophenoxy)ethane-N,N,N′,N′-tetraacetate, 12 mM phosphocreatine, 2 mM Na2ATP, 0.2 mM Na3GTP, 0.1 mM leupeptin (pH 7.2–7.3), 265–270 mosm/liter. The external solution consisted of 135 mM NaCl, 20 mM CsCl, 1 mM MgCl2, 10 mM Hepes, 0.001 mM tetrodotoxin, 5 mM BaCl2, 10 mM glucose (pH 7.3), 300–305 mosm/liter. Recordings were obtained with an Axon Instruments 200B patch clamp amplifier that was controlled and monitored with an IBM PC running PCLAMP™ (v. 8) with a DigiData 1320 series interface (Axon Instruments, Foster City, Calif.). Electrode resistances were typically 2–4 MΩ in the bath. After seal rupture, series resistance (4–10 MΩ) was compensated (70–90%) and periodically monitored. Drugs were applied with a gravity-fed “sewer pipe” system. The array of application capillaries was positioned 250 μm from the cell under study. Solution changes were effected by altering the position of the array with a DC drive system controlled by a microprocessor-based controller (Newport-Klinger, Irvine, Calif.). Data analyses were performed with AXOGRAPH™ (Axon Instruments), […]™ (Albeck Software, Reading, Pa.), and […]™ (Abacus Concepts, Berkeley, Calif.).

[7] = 1 μM butyrolactone, 30 min before DHPG 2 min
[8] = butyrolactone 5 μM and 10 μM, 30 min before DHPG 2 min
[9] = slices treated with drug alone: DHPG 100 μM, ionomycin 2 μM

Compound: N[C@@H](CP(=O)(O)O)C(=O)O [L-AP3]
- effect of pretreatment on the DHPG effect on Thr75 phosphorylation [1]: blocked
- effect of pre-incubation on the ability of DHPG to increase CK1ε activity [2]: blocked
- effect of pretreatment on the DHPG effect on Ser137 phosphorylation [3]: blocked

Compound: Nc1nc(NCCc2ccc(O)cc2)nc2nc(-c3ccco3)nn12 [ZM241385]
- effect of pretreatment on the DHPG effect on Thr75 phosphorylation [1]: did not affect
- effect of pretreatment on the DHPG effect on Ser137 phosphorylation [3]: did not affect

Compound: 4-OH-tamoxifen
- IC50 [4]: 26 nM

Compound: COc1ccc2c(c1)CC[C@@H]1[C@@H]2CC[C@]2(C)[C@@H](NCCCCCCN3C(=O)C=CC3=O)CC[C@@H]12 [U73122]
- effect on basal phosphorylation of Thr75 [1]: did not change
- effect of pretreatment on the DHPG effect on Thr75 phosphorylation [1]: abolished
- effect of pre-incubation on the ability of DHPG to increase CK1ε activity [2]: abolished
- effect of pretreatment on the effect of DHPG on Cdk5 kinase activity [5]: abolished
- effect on basal phosphorylation of Ser137 [3]: did not change
- effect of pretreatment on the DHPG effect on Ser137 phosphorylation [3]: abolished

Compound: O=C1CCCO1 [butyrolactone]
- effect on basal or DHPG-stimulated DARPP-32 phosphorylation at Thr75 [1, 7]: little effect
- effect on basal and DHPG-stimulated phosphorylation of Thr75 [1, 8]: decreased in a dose-dependent manner
- effect on basal or DHPG-stimulated DARPP-32 phosphorylation at Ser137 [3, 7]: little effect
- effect on basal and DHPG-stimulated phosphorylation of Ser137 [3, 8]: unaffected
- effect on basal Ca2+ currents [6]: significant reduction; also recorded: reduced
- effect on the enhancement of Ca2+ currents by DHPG ([6]; DHPG 100 μM): eliminated

Compound: 17β-estradiol
- IC50 [4]: 5.6 nM

Compound: C[C@H](CCC(=O)O)C[C@H](C)C[C@H](C)C(=O)/C=C(\O)[C@H](C)C[C@H](C)C/C=C/[C@@H](C)[C@@H](O)[C@@H](C)[C@@H](O)C[C@@H]1CC[C@@](C)([C@H]2CC[C@@](C)([C@@H](C)O)O2)O1 [ionomycin]
- effect on phosphorylation of Thr75 in DARPP-32 [1, 9]: increased phosphorylation
- increase in Cdk5 kinase activity ([5]; ionomycin 2 μM for 2 min): 2 fold
- effect on phosphorylation of Ser137 in DARPP-32 [3, 9]: increased phosphorylation

Compound: CC(=O)OCOC(=O)CN(CC(=O)OCOC(C)=O)c1ccccc1OCCOc1ccccc1N(CC(=O)OCOC(C)=O)CC(=O)OCOC(C)=O [BAPTA/AM]
- effect on basal phosphorylation of Thr75 [1]: did not change
- effect of pretreatment on the DHPG effect on Thr75 phosphorylation [1]: abolished
- effect of pre-incubation on the ability of DHPG to increase CK1ε activity [2]: abolished
- effect of pretreatment on the effect of DHPG on Cdk5 kinase activity [5]: abolished
- effect on basal phosphorylation of Ser137 [3]: did not change
- effect of pretreatment on the DHPG effect on Ser137 phosphorylation [3]: abolished
